The test system of the experiment is CDK8 (phosphorylation of STAT1 at serine 727 in A549 cells). The experiment is described as follows: Cell based Phospho-STAT1 assay (IFNγ-stimulated A549 cells, AlphaLISA). The note with it: Homo sapiens, A549, A549 cells, phospho-STAT1 after IFNγ stimulation. As to the method: Determine Inhibitor Activity Against CDK8 in Cell Based Phospho-STAT1 Assay
This assay measures the phosphorylation of the CDK8 substrate STAT1 following Interferon-gamma (IFNγ) stimulation^1. The lung carcinoma cell line A549 is seeded in a 96 well plate in 50 μL of culture media at 5×10^4 cells/well and incubated at 37° C. overnight. Serial dilutions of compounds (in total volume of 50 μL culture media) are added to the cells and incubated at 37° C. for one hour. Human IFNγ (R&D Systems) is added to the cells at a 10 ng/mL final concentration. 4 wells containing DMSO treated cells stimulated with IFNγ serve as high controls and 4 wells containing DMSO treated unstimulated cells serve as low controls. After 30 minute IFNγ stimulation at 37° C., the culture media is removed and 50 μL of 1×AlphaLISA lysis buffer (PerkinElmer GA, USA) is added to each well. 5 μL cell lysate is transferred to a 384 well AlphaPlate (PerkinElmer GA, USA) and 5 μL containing 0.156 nM Phospho-STAT1 (Ser727) rabbit monoclonal antibody (Cell Signaling Technology), 0.156 nM Mouse Anti-STAT1 antibody (BD Transduction Laboratories), and 10 μg/mL Anti-rabbit IgG AlphaLISA acceptor beads (PerkinElmer GA, USA) diluted in 1× AlphaLISA immunoassay buffer (PerkinElmer GA, USA) is added to the cell lysates and incubated at room temperature for 90 minutes. 5 μL Anti-Mouse IgG Alpha donor beads diluted in 1× AlphaLISA immunoassay buffer (PerkinElmer GA, USA) is added to the reaction mixture and incubated at room temperature for 90 minutes. Upon excitation of these beads with laser light at 680 nm, singlet oxygen is produced. This singlet oxygen is rapidly quenched, unless the AlphaLISA Anti-Rabbit IgG acceptor beads are in close proximity, in which case a proximity signal can be measured at […]. In the presence of cellular CDK8 catalytic activity, there is a very strong proximity signal. Selective CDK8 inhibitors affect a decrease in this proximity signal through a decrease in phosphorylation of STAT1 at serine 727. The percentage inhibition at individual concentrations relative to high and low controls is calculated. The data are analyzed by using nonlinear regression to generate IC50 values.
On the technique in general: Alpha assays give light when donor and acceptor beads are brought close together.

As a reminder, the IC50 is the midpoint of a concentration-inhibition curve. The compound `Cc1noc(C)c1-c1ccc(-c2cnn3cccc(C#CC(C)(C)O)c23)cc1` [Compound P-0227, 4-(3-(4-(3,5-dimethylisoxazol-4-yl)phenyl)pyrazolo[1,5-a]pyridin-4-yl)-2-methylbut-3-yn-2-ol] had a half-maximal inhibitory concentration (IC50) of 1 to 10 µM.
As for `Cc1nn(C)c(C)c1-c1ccc(-c2cnn3cccc(C#CC(C)(C)O)c23)cc1` [Compound P-0236, 2-methyl-4-(3-(4-(1,3,5-trimethyl-1H-pyrazol-4-yl)phenyl)pyrazolo[1,5-a]pyridin-4-yl)but-3-yn-2-ol], the IC50 was in the range of 1 to 10 µM.
In turn, `COc1ncc(-c2cnn3cccc(C#CC(C)(C)O)c23)cn1` [Compound P-0288, 4-(3-(2-methoxypyrimidin-5-yl)pyrazolo[1,5-a]pyridin-4-yl)-2-methylbut-3-yn-2-ol] gave an IC50 of 0.1 to 1 µM.
As for `COC(=O)N1CCC(Oc2cccc3ncc(-c4ccc(-c5cnn(C(F)F)c5)cc4)n23)CC1` [Compound P-0291, methyl 4-((3-(4-(1-(difluoromethyl)-1H-pyrazol-4-yl)phenyl)imidazo[1,2-a]pyridin-5-yl)oxy)piperidine-1-carboxylate], the IC50 fell in the range of 0.1 to 1 µM.
The value for `CNC(=O)N1CCC(Oc2cccc3ncc(-c4ccc(-c5cnn(C(F)F)c5)cc4)n23)CC1` [Compound P-0292, 4-((3-(4-(1-(difluoromethyl)-1H-pyrazol-4-yl)phenyl)imidazo[1,2-a]pyridin-5-yl)oxy)-N-methylpiperidine-1-carboxamide] was 1 to 10 µM; that for `Cn1cc(C#Cc2cnc3cccc(N4CCC(CC(N)=O)CC4)n23)cn1` [Compound P-0294, 2-(1-(3-((1-methyl-1H-pyrazol-4-yl)ethynyl)imidazo[1,2-a]pyridin-5-yl)piperidin-4-yl)acetamide] was 1 to 10 µM.
In turn, `CS(=O)(=O)N1CCC(Oc2cccc3ncc(-c4ccc(-c5cnn(C(F)F)c5)cc4)n23)CC1` [Compound P-0298, 3-(4-(1-(difluoromethyl)-1H-pyrazol-4-yl)phenyl)-5-((1-(methylsulfonyl)piperidin-4-yl)oxy)imidazo[1,2-a]pyridine] yielded a 50% inhibitory concentration (IC50) of 1 to 10 µM.
For `NC(=O)N1CCC(Oc2cccc3ncc(-c4ccc(-c5cnn(C(F)F)c5)cc4)n23)CC1` [Compound P-0299, 4-((3-(4-(1-(difluoromethyl)-1H-pyrazol-4-yl)phenyl)imidazo[1,2-a]pyridin-5-yl)oxy)piperidine-1-carboxamide] the value was 1 to 10 µM; for `Cn1cc(-c2ccc(-c3cnn4cccc(C5=CCS(=O)(=O)CC5)c34)cc2)cn1` [Compound P-0300, 4-(3-(4-(1-methyl-1H-pyrazol-4-yl)phenyl)pyrazolo[1,5-a]pyridin-4-yl)-3,6-dihydro-2H-thiopyran 1,1-dioxide], 0.1 to 1 µM.
The value for `Cn1cc(-c2ccc(-c3cnn4cccc(C5=CCSCC5)c34)cc2)cn1` [Compound P-0301, 4-(3,6-dihydro-2H-thiopyran-4-yl)-3-(4-(1-methyl-1H-pyrazol-4-yl)phenyl)pyrazolo[1,5-a]pyridine] was 0.1 to 1 µM; that for `Cn1cc(-c2ccc(C3=C4C(C5CCC(C#N)CC5)=CC=CN4NC3)cc2)cn1` (centres unmarked) [Compound P-0302, 4-(3-(4-(1-methyl-1H-pyrazol-4-yl)phenyl)-1,2-dihydropyrazolo[1,5-a]pyridin-4-yl)cyclohexane-1-carbonitrile] was 1 to 10 µM.
The compound `FC(F)n1cc(-c2ccc(-c3cnc4cccc(OC5CCNCC5)n34)cc2)cn1` [Compound P-0305, 3-(4-(1-(difluoromethyl)-1H-pyrazol-4-yl)phenyl)-5-(piperidin-4-yloxy)imidazo[1,2-a]pyridine] came in with an IC50 of 1 to 10 µM.
The value for `CC(C)(C)OC(=O)N1CCC(Oc2cccc3ncc(-c4ccc(-c5cnn(C(F)F)c5)cc4)n23)CC1` [Compound P-0306, tert-butyl 4-((3-(4-(1-(difluoromethyl)-1H-pyrazol-4-yl)phenyl)imidazo[1,2-a]pyridin-5-yl)oxy)piperidine-1-carboxylate] was 1 to 10 µM; that for `CC(=O)NC(C)(C)C#Cc1cccn2ncc(-c3ccc(-c4cnn(C)c4)cc3)c12` [Compound P-0307, N-(2-methyl-4-(3-(4-(1-methyl-1H-pyrazol-4-yl)phenyl)pyrazolo[1,5-a]pyridin-4-yl)but-3-yn-2-yl)acetamide] was 0.1 to 1 µM; that for `COC(=O)CC1CCN(c2cccc3ncc(C#Cc4cnn(C)c4)n23)CC1` [Compound P-0312, methyl 2-(1-(3-((1-methyl-1H-pyrazol-4-yl)ethynyl)imidazo[1,2-a]pyridin-5-yl)piperidin-4-yl)acetate] was 1 to 10 µM.
The value for `Cn1ncc2cc(-c3cnn4ccnc(N5CCC(C#N)CC5)c34)ccc21` [Compound P-0326, 1-[3-(1-methylindazol-5-yl)pyrazolo[1,5-a]pyrazin-4-yl]piperidine-4-carbonitrile] was 1 to 10 µM.
The value for `N#CC1CCN(c2c(-c3ccc4c(c3)OC(F)(F)O4)cnc3[nH]ccc23)CC1` [Compound P-0334, 1-(5-(2,2-difluorobenzo[d][1,3]dioxol-5-yl)-1H-pyrrolo[2,3-b]pyridin-4-yl)piperidine-4-carbonitrile] was 0.1 to 1 µM; that for `Cn1ncc2cc(-c3cnc4[nH]ccc4c3C3=CCC(C(N)=O)CC3)ccc21` (centres unmarked) [Compound P-0335, 4-(5-(1-methyl-1H-indazol-5-yl)-1H-pyrrolo[2,3-b]pyridin-4-yl)cyclohex-3-ene-1-carboxamide] was 0.0001 to 0.1 µM.
Turning to `Cn1ncc2cc(-c3cnc4[nH]ccc4c3NCC(C)(C)C#N)ccc21` [Compound P-0336, 2,2-dimethyl-3-((5-(1-methyl-1H-indazol-5-yl)-1H-pyrrolo[2,3-b]pyridin-4-yl)amino)propanenitrile], the 50% inhibitory concentration (IC50) is 0.1 to 1 µM.
In turn, `Cn1cc(-c2ccc(-c3cnn4cccc(C#CC5(O)CCNCC5)c34)cc2)cn1` [Compound P-0338, 4-((3-(4-(1-methyl-1H-pyrazol-4-yl)phenyl)pyrazolo[1,5-a]pyridin-4-yl)ethynyl)piperidin-4-ol] yielded an IC50 of 0.1 to 1 µM.
`Cn1cc(-c2ccc(-c3cnc4ccc(C#N)c(N5CCC(C#N)CC5)n34)cc2)cn1` [Compound P-0339, 5-(4-cyanopiperidin-1-yl)-3-(4-(1-methyl-1H-pyrazol-4-yl)phenyl)imidazo[1,2-a]pyridine-6-carbonitrile]: the IC50 lay in the range of 0.1 to 1 µM.
`Cn1ncc2ccc(-c3cnc4[nH]ccc4c3C3=CCC(C#N)CC3)cc21` (centres unmarked) [Compound P-0340, 4-(5-(1-methyl-1H-indazol-6-yl)-1H-pyrrolo[2,3-b]pyridin-4-yl)cyclohex-3-ene-1-carbonitrile] came in with an IC50 of 0.0001 to 0.1 µM.
In the case of `Cc1nn(C)c2ccc(-c3cnc4[nH]ccc4c3C3=CCC(C#N)CC3)cc12` (centres unmarked) [Compound P-0342, 4-(5-(1,3-dimethyl-1H-indazol-5-yl)-1H-pyrrolo[2,3-b]pyridin-4-yl)cyclohex-3-ene-1-carbonitrile], the IC50 was in the range of 0.0001 to 0.1 µM.
The value for `Cn1ncc2cc(-c3cnc4[nH]ccc4c3C#CC(C)(C)O)ccc21` [Compound P-0343, 2-methyl-4-(5-(1-methyl-1H-indazol-5-yl)-1H-pyrrolo[2,3-b]pyridin-4-yl)but-3-yn-2-ol] was 0.1 to 1 µM; that for `CC(C)(C)n1ncc2cc(-c3cnc4[nH]ccc4c3C3=CCC(C#N)CC3)ccc21` (centres unmarked) [Compound P-0344, 4-(5-(1-(tert-butyl)-1H-indazol-5-yl)-1H-pyrrolo[2,3-b]pyridin-4-yl)cyclohex-3-ene-1-carbonitrile] was 0.1 to 1 µM.
The value for `Cn1ncc2cc(-c3nnc4cccc(C5=CCC(C#N)CC5)n34)ccc21` (centres unmarked) [Compound P-0345, 4-(3-(1-methyl-1H-indazol-5-yl)-[1,2,4]triazolo[4,3-a]pyridin-5-yl)cyclohex-3-ene-1-carbonitrile] was 1 to 10 µM.
For `N#CC1CCC(c2cccn3ncc(-c4ccc(-c5cnn(C(F)F)c5)cc4)c23)CC1` (centres unmarked) [Compound P-0346, 4-(3-(4-(1-(difluoromethyl)-1H-pyrazol-4-yl)phenyl)pyrazolo[1,5-a]pyridin-4-yl)cyclohexane-1-carbonitrile] the value was 0.1 to 1 µM.
With `Cn1cc(-c2ccc(-c3cnn4cccc(C5CCC(C#N)CC5)c34)cc2)cn1` (centres unmarked) [Compound P-0347, 4-(3-(4-(1-methyl-1H-pyrazol-4-yl)phenyl)pyrazolo[1,5-a]pyridin-4-yl)cyclohexane-1-carbonitrile], the IC50 was 0.1 to 1 µM.
For `FC(F)n1cc(-c2ccc(-c3cnc4cccc(OC5CCSCC5)n34)cc2)cn1` [Compound P-0348, 3-(4-(1-(difluoromethyl)-1H-pyrazol-4-yl)phenyl)-5-((tetrahydro-2H-thiopyran-4-yl)oxy)imidazo[1,2-a]pyridine] the value was 1 to 10 µM.

(Values after patent publication US10703757B2, “Compounds and methods for CDK8 modulation and indications therefor” (Plexxikon Inc., priority 2016, dated 2020).)
